Measurements published in patent US8333970B2, “Methods of monitoring the efficacy of anti-CD40 antibodies in treating a subject having an inflammatory or autoimmune disease” (Novartis AG, priority 2005, dated 2012).
“Also recorded” adds a separate entry of the source.

What was measured:
normal human B cells [1] = test: Western blot of XIAP and cleaved PARP without sCD40L stimulation; type: cell-based; conditions: 10 μg/ml antibody, no sCD40L, 0 to 16 hours
Description: Cells were collected at 0, 4, 14, and 16 hours. XIAP, cleaved PARP, and β-actin controls were detected in cell lysates by Western blot.

[2] = system: CD40-expressing target cells; test: Antibody dependent cellular cytotoxicity (ADCC); type: cell-based; conditions: native antibodies
Text: (§1) 2, 2000, and PCT International Application No. PCT/US01/30857, also titled “Human Anti-CD40 Antibodies,” filed Oct. 2, 2001, both of which are herein incorporated by reference in their entirety.
Clones from 7 other hybridomas were identified as having antagonistic activity. Based on their relative antagonistic potency and ADCC activities, two hybridoma clones were selected for further evaluation (Table 1 below). They are named 131.2F8.5.9 (5.9) and 153.8E2.D10.D6.12.12 (12.12).

[3] = biological target: T1, CD40-TRAF2/3 signaling complex (Homo sapiens, UniProt P25942); test: CD40 immunoprecipitation, TRAF2/TRAF3 Western blot; type: cell-based; conditions: 1 μg/ml sCD40L, 20 minutes
T1 construct: normal human B cells from healthy donors; endogenous in cells; host or cells: normal human B cells from healthy donors
T1 sequence (P25942 21-277, one chain of several): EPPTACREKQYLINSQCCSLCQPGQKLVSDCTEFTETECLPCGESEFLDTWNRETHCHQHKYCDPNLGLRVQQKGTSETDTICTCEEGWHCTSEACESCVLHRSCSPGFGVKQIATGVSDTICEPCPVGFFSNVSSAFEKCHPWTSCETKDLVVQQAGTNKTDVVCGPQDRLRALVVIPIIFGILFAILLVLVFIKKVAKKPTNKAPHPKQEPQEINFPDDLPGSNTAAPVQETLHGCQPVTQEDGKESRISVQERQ
Description: In these experiments, 4.0×10^6 normal human B cells from healthy donors (percent purity between 85-95%) were serum starved for four hours in 1% FBS-containing media and stimulated with 1 μg/ml sCD40L (Alexis Corporation, Bingham, Nottinghamshire, UK) for 20 minutes. Cells were collected at 0 and 20 minutes. CD40 was immunoprecipitated using polyclonal anti-CD40 (Santa Cruz Biotechnology, CA), and was probed in a Western blot with anti-TRAF2 mAb (Santa Cruz Biotechnology, CA), anti-TRAF3 mAb (Santa Cruz Biotechnology, CA), and anti-CD40 mAb (Santa Cruz Biotechnology, CA).

[4] = system: primary cancer cells from NHL patients; test: ADCC on primary cancer cells; type: cell-based, human; conditions: in vitro
Text: (§2) 4, 2003, Nov. 26, 2003, and Apr. 27, 2004, and assigned U.S. Patent Application Nos. 60/517,337 , 60/525,579, and 60/565,710, respectively, and International Patent Application No. PCT/US2004/037152, also entitled “Antagonist Anti-CD40 Monoclonal Antibodies and Methods for Their Use,” filed Nov. 4, 2004; the contents of each of which are herein incorporated by reference in their entirety.

cell-surface CD40 = cell-surface CD40 (Homo sapiens, UniProt P25942); test: Flow cytometric (FACS) assay of CD40 binding and CD40-ligand blocking
cell-surface CD40, sequence (P25942 21-277): as the sequence (P25942 21-277, one chain of several) above
Text: as §1

normal B cells = test: CD40L-induced cytokine secretion, Meso Scale Discovery multi-array; type: cell-based, human; conditions: 24 hours; for % inhibition of CD40L-induced MCP-1 secretion / % inhibition of CD40L-induced MIP-1β secretion / % inhibition of CD40L-induced hIL-6 secretion / % inhibition of CD40L-induced hIL-8 secretion / % inhibition of CD40L-induced hIL-10 secretion / % inhibition of CD40L-induced hTNF-α secretion: normal B cells
Description: (§3) Cells (1×10^5 cells per well) were cultured in a 96-well plate in the presence or absence of CD40L ([…], formaldehyde fixed CHO cells, 2×10^5 per well). […] Production of hIL-6, hIL-8, hIL-10, hTNF-α; hGM-CSF, hIL-1b, hIL-12p70, MCP-1, and MIP-1β beta was measured by Meso Scale Discovery® multi-array system (Meso Scale Discovery, Gaithersburg, Md.).

monocytes [5] = test: as above; type: cell-based, human; conditions: 24 hours
Description: as §3

normal human B cells [6] = test: Western blot of apoptosis and survival proteins in sCD40L-stimulated B cells; type: cell-based
Description: (§4) In these experiments, 0.6×10^6 normal human B cells from healthy donors (percent purity between 85-95%) were stimulated with 1 μg/ml sCD40L (Alexis Corporation, Bingham, Nottinghamshire, UK). […] Cells were collected at 0, 20 minutes, 2 hours, 6 hours, 18 hours, and 26 hours. Cleaved Caspase-9, cleaved Caspase-3, cleaved PARP, and β-actin controls were detected in cell lysates by Western blot.
as §4, with “Mcl-1, XIAP, CD40,” for “Cleaved Caspase-9, cleaved Caspase-3, cleaved PARP,”
as §4, with “percent” for “(percent”, “24” for “0, 20 minutes, 2 hours, 6 hours, 18 hours, and 26”, “Cleaved” for “Cleaved Caspase-9, cleaved Caspase-3, cleaved”
as §4, with “22” for “0, 20 minutes, 2 hours, 6 hours, 18 hours, and 26”, “Mcl-1, XIAP,” for “Cleaved Caspase-9, cleaved Caspase-3,”

monocytes [7] = test: CD40L-induced production of VEGF; type: cell-based
Text: In another experiment, CD40L-induced production of VEGF in monocytes is examined in a manner similar to that described above.

[8] = system: B cells from normal human subjects; test: In vitro proliferation of normal human B cells / lymphocytes; type: cell-based
Text: as §1, §2

normal human B cells [9] = test: Western blot of survival and signaling markers, rhsCD40L-stimulated B cells (Example 5, FIG. 1); type: cell-based
Text: Cells were lysed and whole cell lysates resolved by SDS-PAGE and Western blotting using antibodies specific to human cPARP, Mcl-1, Bcl-xl, p-Akt, and p-p38 MAPK. All membranes were stripped and re-probed for either β-actin or total Akt or p38 MAPK protein, as appropriate.

[10] = 1 μg/ml sCD40L, 10 μg/ml antibody, 0 to 26 hours
[11] = 1 μg/ml sCD40L, 0.5, 2 and 10 μg/ml antibody, 22 hours
[12] = 2 μg/ml rhsCD40L, 10 μg/ml antibody, 24 hr

- CD40 expression [3]: no changes in CD40 expression
- specific binding to human CD40 (cell-surface CD40; FACS analysis): bind specifically to human CD40
Substance: CHIR-12.12: fully human anti-CD40 monoclonal antibody of the IgG1 isotype, hybridoma 153.8E2.D10.D6.12.12, ATCC PTA-5543, SEQ ID NO:2 and 4
- apoptosis (cleaved PARP, XIAP) without sCD40L stimulation (normal human B cells [1]): did not trigger these apoptotic effects; also recorded: does not trigger apoptosis in normal human B cells without CD40L stimulation
- ADCC activity, killing of CD40-expressing target cells [2]: have ADCC activity; also recorded: able to kill CD40-expressing target cells
- formation of the CD40-TRAF2/3 signaling complex [3]: abrogated formation of the CD40-TRAF2/3 signaling complex
- killing of primary cancer cells by ADCC [4]: kill primary cancer cells from NHL patients by ADCC
- displacement of CD40-ligand pre-bound to cell surface CD40 (cell-surface CD40; flow cytometric assays): displace the pre-bound CD40-ligand; also recorded: can compete off CD40-ligand pre-bound to cell surface CD40
- prevention of CD40-ligand binding to cell-surface CD40 (cell-surface CD40; flow cytometric assays): prevent the binding of CD40-ligand to cell-surface CD40; also recorded: can prevent CD40-ligand binding
- cytokine production with antibody alone (agonistic activity) (normal B cells; absence of CD40L, 10 μg/ml): did not produce any of the cytokines above background levels
- CD40L-induced production of all cytokines (normal B cells; normal B cells (n=3), 10 μg/ml): inhibited production of all cytokines
- % inhibition of CD40L-induced MCP-1 secretion (normal B cells; Donor 1, 10 μg/ml): 55.3%
- % inhibition of CD40L-induced MIP-1β secretion (normal B cells; Donor 1, 10 μg/ml): 54.4%
- % inhibition of CD40L-induced hIL-6 secretion (normal B cells; Donor 1, 10 μg/ml): 92.2%
- % inhibition of CD40L-induced hIL-8 secretion (normal B cells; Donor 1, 10 μg/ml): 98.2%
- % inhibition of CD40L-induced hIL-10 secretion (normal B cells; Donor 1, 10 μg/ml): 90.5%
- % inhibition of CD40L-induced hTNF-α secretion (normal B cells; Donor 1, 10 μg/ml): 92.8%
- % inhibition of CD40L-induced MIP-1β secretion (normal B cells; Donor 2, 10 μg/ml): 92%
- % inhibition of CD40L-induced hIL-6 secretion (normal B cells; Donor 2, 10 μg/ml): 99.9%
- % inhibition of CD40L-induced hIL-8 secretion (normal B cells; Donor 2, 10 μg/ml): 84.7%
- % inhibition of CD40L-induced hTNF-α secretion (normal B cells; Donor 2, 10 μg/ml): 97.4%
- % inhibition of CD40L-induced MCP-1 secretion (normal B cells; Donor 3, 10 μg/ml): 25.7%
- % inhibition of CD40L-induced MIP-1β secretion (normal B cells; Donor 3, 10 μg/ml): 92.5%
- % inhibition of CD40L-induced hIL-6 secretion (normal B cells; Donor 3, 10 μg/ml): 99.3%
- % inhibition of CD40L-induced hIL-8 secretion (normal B cells; Donor 3, 10 μg/ml): 99.5%
- % inhibition of CD40L-induced hIL-10 secretion (normal B cells; Donor 3, 10 μg/ml): 94.4%
- % inhibition of CD40L-induced hTNF-α secretion (normal B cells; Donor 3, 10 μg/ml): 98.5%
- CD40L-induced production of hIL-10, hTNF-α, hIL-8, hIL-6, MCP-1 and MIP-1β (monocytes [5]; monocytes (n=1), 10 μg/ml): inhibited CD40L-induced monocyte production
- % inhibition of CD40L-induced MCP-1 secretion (monocytes [5]; monocytes, Donor 1, 10 μg/ml): 92.6%
- % inhibition of CD40L-induced MIP-1β secretion (monocytes [5]; monocytes, Donor 1, 10 μg/ml): 32.4%
- % inhibition of CD40L-induced hIL-6 secretion (monocytes [5]; monocytes, Donor 1, 10 μg/ml): 64.9%
- % inhibition of CD40L-induced hIL-8 secretion (monocytes [5]; monocytes, Donor 1, 10 μg/ml): 43.7%
- % inhibition of CD40L-induced hIL-10 secretion (monocytes [5]; monocytes, Donor 1, 10 μg/ml): 58.5%
- % inhibition of CD40L-induced hTNF-α secretion (monocytes [5]; monocytes, Donor 1, 10 μg/ml): 60.1%
- cleaved Caspase-9, cleaved Caspase-3, cleaved PARP (normal human B cells [6]; [10]): increased cleavage of Caspase-9, Caspase-3, and PARP; also recorded: resulted in an increase of these cleavage products
- expression of Mcl-1 and XIAP over time (normal human B cells [6]; [10]): reduction of XIAP and Mcl-1; also recorded: resulted in a decrease in expression of these proteins
- PARP cleavage (normal human B cells [6]; 1 μg/ml sCD40L, 0.01-1.0 μg/ml antibody, 24 hours): increase of PARP cleavage in sCD40L stimulated cells in a dose-dependent manner
- Mcl-1 and XIAP expression (normal human B cells [6]; [11]): reduced Mcl-1 and XIAP expression
- cleaved PARP expression (normal human B cells [6]; [11]): increased cleaved PARP expression
- CD40L-induced production of VEGF (monocytes [7]): inhibit CD40L-induced production of VEGF
- CD40L-induced lymphocyte proliferation ([8]; human peripheral blood lymphocytes): inhibits CD40L-induced lymphocyte proliferation
- effect on CD40 ligand-mediated proliferation of normal B cells ([8]; in vitro): act as antagonist anti-CD40 antibodies; also recorded: inhibit in vitro CD40 ligand-mediated proliferation of normal B cells
- induction of proliferation of human lymphocytes (agonist activity) ([8]; lymphocytes from normal subjects, antibody alone): do not induce strong proliferation; also recorded: does not induce the proliferation of human peripheral blood lymphocytes
- expression of anti-apoptotic proteins Mcl-1 and Bcl-xl (normal human B cells [9]; [12]): inhibited the expression of the anti-apoptotic proteins Mcl-1 and Bcl-xl
- phosphorylation of Akt and p38 MAPK (normal human B cells [9]; [12]): inhibiting the phosphorylation of the downstream signaling proteins
- CD40L-induced signaling and survival of normal human B cells (normal human B cells [9]; FIG. 1): blocked
